# Test results: patent US20220339243A1, “COMPOSITIONS AND SYNERGISTIC METHODS FOR TREATING INFECTIONS” (BioAegis Therapeutics Inc., priority 2019, published 2022)
# Legend:
# P. aeruginosa UNC-D [1] = assay: Minimum inhibitory concentrations of the UNC-D strain; type: cell-based; settings: for MIC: Pseudomonas aeruginosa, read-out: Minimum inhibitory concentration
# Method: P. aeruginosa UNC-D is a sputum isolate from a patient with cystic fibrosis. [Lawrenz M B, et al. Pathog. Dis. 73 (2015)]. Bacteria were cultured on trypticase soy agar (TSA) plates and in Lennox broth at 37° C. with shaking of broth cultures. […] Bacteria were prepared for animal challenge studies by culturing bacteria in Lennox broth overnight and washing the bacteria into 1×PBS before diluting to a final concentration based on OD600-based estimates and a final 50 μl delivery dose. Bacterial inocula were confirmed by serial dilution and colony enumeration on TSA plates.
# S. pneumoniae isolates = settings: pediatric population; Cai et al. 2018; cited from earlier work
# P. aeruginosa UNC-D [2] = assay: Multidrug-resistant P. aeruginosa pneumonia in neutropenic BALB/c mice; type: in vivo
# [3] = system: Streptococcus pneumoniae type 3; assay: Antibiotic-sensitive pneumococcal pneumonia, CD1 mice, delayed treatment; type: in vivo; settings: PEN 100 μg i.m. on days 2 and 3 after infection; FIG. 3B
# [4] = system: Streptococcus pneumoniae type 14; assay: Antibiotic-resistant pneumococcal pneumonia, CD1 mice, delayed treatment; type: in vivo
# [5] = system: Streptococcus pneumoniae type 14; assay: In vitro bacterial growth, 1 h culture; type: cell-based; settings: PEN 16 μg/ml, pGSN 250 μg/ml, average of 2 replicates
# [6] = system: Streptococcus pneumoniae type 14; settings: cited from earlier work
molecule,measurement,setting,value
C[C@H]1[C@H](NC(=O)/C(=N\OC(C)(C)C(=O)O)c2csc(N)n2)C(=O)N1S(=O)(=O)O [aztreonam],MIC,P. aeruginosa UNC-D [1],4 µg/mL
CCN1CCN(C(=O)N[C@@H](C(=O)N[C@@H]2C(=O)N3[C@@H]2SC(C)(C)[C@@H]3C(=O)O)c2ccccc2)C(=O)C1=O [piperacillin],MIC,P. aeruginosa UNC-D [1],16 µg/mL
C[C@@H]1O[C@@H]1P(=O)(O)O [fosfomycin],MIC,P. aeruginosa UNC-D [1],256 µg/mL
trimethoprim-sulfamethoxazole,resistance of S. pneumoniae isolates from invasive infections,S. pneumoniae isolates,79%
NC[C@H]1O[C@H](O[C@H]2[C@H](O)[C@@H](O[C@H]3O[C@H](CO)[C@@H](O)[C@H](N)[C@H]3O)[C@H](N)C[C@@H]2N)[C@H](N)C[C@@H]1O [tobramycin],MIC,P. aeruginosa UNC-D [1],32 µg/mL
C[C@@H](O)[C@H]1C(=O)N2C(C(=O)O)=C(SCCN=CN)C[C@H]12 [imipenem],MIC,P. aeruginosa UNC-D [1],16 µg/mL
CC[C@H]1OC(=O)[C@H](C)[C@@H](O[C@H]2C[C@@](C)(OC)[C@@H](O)[C@H](C)O2)[C@H](C)[C@@H](O[C@@H]2O[C@H](C)C[C@H](N(C)C)[C@H]2O)[C@](C)(O)C[C@@H](C)C(=O)[C@H](C)[C@@H](O)[C@]1(C)O [erythromycin],resistance of S. pneumoniae isolates from invasive infections,S. pneumoniae isolates,96%
CC(C)(O/N=C(\C(=O)N[C@@H]1C(=O)N2C(C(=O)[O-])=C(C[n+]3ccccc3)CS[C@H]12)c1csc(N)n1)C(=O)O [ceftazidime],MIC,P. aeruginosa UNC-D [1],32 µg/mL
C[C@@H](O)[C@H]1C(=O)N2C(C(=O)O)=C(S[C@@H]3CN[C@H](C(=O)N(C)C)C3)[C@H](C)[C@H]12 [meropenem],MIC,P. aeruginosa UNC-D [1],8 µg/mL
same,survival in each of experiments 1 and 2,P. aeruginosa UNC-D [2]; 1250 mg/kg/day of meropenem,≤ 50%
same,"mean pathology score (lung, maximum 16)","P. aeruginosa UNC-D [2]; 1250 mg/kg/day, two independent studies combined, FIG. 9C, p=0.0049",6.86
same,"near-normal lung histopathology, surviving mice as the denominator",P. aeruginosa UNC-D [2]; 26/35 vs 38/46,74.3%
same,"overall survival, all dosing groups in the 3 experiments combined",P. aeruginosa UNC-D [2]; 35/64 without and 46/64 with rhu-pGSN,55%
same,overall survival with minor lung injury (pathology scores ≤2),"P. aeruginosa UNC-D [2]; all meropenem doses, three experiments, 26/64 vs 38/64, FIG. 10",41%
same,spread to spleen / splenic counts,"P. aeruginosa UNC-D [2]; both studies, combined data, pGSN given with meropenem",controlled spread from lung to spleen
same,"survival, third experiment","P. aeruginosa UNC-D [2]; different lot of meropenem, meropenem only group",75%
same,"survival with near-normal lungs, control survival rate between 25% and 75%","P. aeruginosa UNC-D [2]; exploratory post-hoc analysis, 12/32 vs 27/32",37.5%
same,"survival for 7 days, two sequential studies combined","P. aeruginosa UNC-D [2]; meropenem 1250 mg/kg/day s.c. q8h 5 days, rhu-pGSN 12 mg/day i.p. days -1 to +5, FIG. 7C",31%
same,time to restoration of body temperature to 95° F. in survivors,"P. aeruginosa UNC-D [2]; two studies with survival advantage, FIG. 11",3-5 days post-infection
colistin,Minimum inhibitory concentration,P. aeruginosa UNC-D [1],1 µg/mL
penicillin,survival,[3],100%
same,total lavage neutrophils,"[4]; lung lavage 48 hours after infection, single dose, n=5-6/group",153±74 ×10E4
same,survival (final four experiments),"[4]; treatment from 24 h after infection, daily for 9 days, pGSN 5 mg i.p., PEN 1 mg i.m., FIG. 4A",no benefit
same,increase in bacterial CFU,[5],105000 CFU
same,minimum inhibitory concentration (MIC),[6],8 µg/mL
